From PubChem BioAssay AID449750 (Broad Institute, 2010)
Activity calls are given as the source filed them. The rule behind the calls is not given here.

Assay: non-covalent RecA intein splicing inhibitors, dose response, biochemical, cell-free, fluorescence, secondary screen (AID 449750)

SMILES	AC50
Cc1[nH][nH]c(=O)c1C(c1ccc(O)c(Br)c1)c1c(C)[nH][nH]c1=O	13.5 µM
N#C/C(=C\c1ccc(O)c([N+](=O)[O-])c1)c1nc2ccccc2s1	33.8 µM
CCc1ccc(S(=O)(=O)/N=C2\C=CC(=O)c3ccccc32)cc1	2.6 µM
CCc1nnc(NC(=O)c2nc(S(=O)(=O)Cc3cccc(C)c3)ncc2Cl)s1	> 38 µM (inactive)
CC(=O)c1ccc(OC(=O)c2cccs2)cc1	> 38 µM (inactive)
CN1CCN(C(c2ccc(Br)cc2)c2cc(Cl)c3cccnc3c2O)CC1 (stereo not given)	5.33 µM
Cc1ccc(-n2nc(C)c3c2OC(N)=C(C#N)C3c2cccs2)cc1 (stereo not given)	21.1 µM
CCOC1(OCC)C(c2ccc(Cl)cc2)C(C#N)(C#N)C1(OCC)OCC (stereo not given)	> 38 µM (inactive)
O=C(Cc1ccccc1Cl)NC1(O)C(=O)c2ccccc2C1=O	7.63 µM
CCN(Cc1ccccc1)S(=O)(=O)c1ccc(C(=O)N(CCCN(C)C)c2nc3cc(C)cc(C)c3s2)cc1	15.1 µM
CC1=NN(c2ccc(C)cc2C)C(=O)C1C(c1ccccc1)C1C(=O)N(c2ccc(C)cc2C)N=C1C (stereo not given)	3.04 µM
CC(C)(c1ccccc1)c1ccc(OCC2CO2)cc1 (stereo not given)	8.68 µM
CC(=O)NC(=S)c1c(N)n(Cc2ccccc2)c(=O)n(C)c1=O	> 38 µM (inactive)
CCN(Cc1ccc(OC)c(F)c1)C(=O)CCl	11.9 µM
O=c1cc(C23CC4CC(CC(C4)C2)C3)[nH][nH]1	> 38 µM (inactive)
CCOc1cc(C(c2c(C)[nH][nH]c2=O)c2c(C)[nH][nH]c2=O)ccc1OS(=O)(=O)c1ccc(C)cc1	4.78 µM
O=C1C2=C(NC(=S)NC2c2ccc(Cl)cc2)NC(c2ccc(Cl)cc2)N1c1ccc(Cl)cc1 (stereo not given)	4.62 µM
Cc1[nH]nc2c1C(c1cn[nH]c1-c1ccc(F)cc1)C(C#N)=C(N)O2 (stereo not given)	> 38 µM (inactive)
CCN(CC)C(=O)c1ccc2c(c1[N+](=O)[O-])C(=O)c1ccccc1C2=O	> 38 µM (inactive)
COC(=O)CN1C(c2ccc(Cl)cc2)=Nc2ccc(Cl)cc2C1c1ccccc1 (stereo not given)	5.48 µM
COc1cccc(CN2CCN(Cc3ccc(C#CC(C)(C)O)s3)CC2CCO)c1 (stereo not given)	> 38 µM (inactive)
COC(CN(C(=O)CCl)C(C(=O)NC1CCCCC1)c1ccc(Cl)cc1)OC (stereo not given)	7.61 µM
CN1CCN(Cc2cc(=O)oc3ccc(Cl)cc23)CC1	> 38 µM (inactive)
O=c1oc2cc(Oc3c([N+](=O)[O-])cc(C(F)(F)F)cc3[N+](=O)[O-])ccc2c2c1CCCC2	> 38 µM (inactive)
CCCCCCCCCCOC(=O)Cn1c(COc2ccccc2OC)[n+](C)c2ccccc21	7.46 µM
[O-][n+]1c2c(nc3c1-c1ccccc1C3O)CCCC2 (stereo not given)	31.2 µM
CC1=NN(c2ccccc2)C(=O)/C1=C/c1cccc(C)c1	4.14 µM

SMILES	AC50
CCOC(=O)c1c(NC(=O)CCl)sc(CN(C)C)c1-c1ccccc1	20.4 µM
Cc1onc(-c2ccccc2)c1-c1nc2cc(Cl)ccc2c(=O)o1	> 38 µM (inactive)
CCCCOc1ccc(C(=O)C(CN2CCOCC2)c2ccccc2)cc1 (stereo not given)	7.35 µM
COc1ccc(C(=O)Nc2ccc(O)c3ccccc23)cc1OC	> 38 µM (inactive)
Cn1c(=O)c([N+](=O)[O-])c(-n2cnc3ccccc32)c2ccccc21	> 38 µM (inactive)
Cc1cc(C(=O)c2ccccc2)c(NC(=O)CCl)s1	7.09 µM
COc1ccc(-c2oc(NC(=O)CCl)c(C#N)c2-c2ccc(OC)cc2)cc1	1.55 µM
CC(=O)c1c(C)nc(-c2ccc(Cl)cc2)nc1N=CN(C)C	> 38 µM (inactive)
Cc1sc(NC(=O)CCl)c(C(=O)c2ccccc2)c1C	5.28 µM
Cn1c(SCC(=O)NCC2CCCO2)ncc(C(=O)Nc2ccc(Cl)cc2)c1=O (stereo not given)	> 38 µM (inactive)
Clc1ccc2nnnc(-c3ccccc3)c2c1	9.57 µM
Cc1nn(-c2ccccc2)c2c1C(c1ccco1)C(C#N)=C(N)O2 (stereo not given)	14 µM
Cc1ccc(-c2[nH]nc3c2C(C)C(C#N)=C(N)O3)cc1 (stereo not given)	> 38 µM (inactive)
O=c1cc(-c2ccccc2)[nH]n1-c1ccc([N+](=O)[O-])cc1	13.1 µM
N#CC1=C(N)Oc2n[nH]c(-c3cccs3)c2C1c1ccsc1 (stereo not given)	3.98 µM
CCOC(=O)c1oc2nc(CC(C)C)c3c(c2c1N)CCC3	> 38 µM (inactive)
Cn1c(/N=C/c2c(O)ccc3ccccc23)nc2ccccc21	10.6 µM
CCCC1C(C#N)=C(N)Oc2n[nH]c(C(C)(C)C)c21 (stereo not given)	1.7 µM
CCOc1ccc(NC(=O)C(c2ccccn2)N(C(=O)CCl)c2ccc(F)cc2)cc1 (stereo not given)	36.2 µM
CCC(C)[C@@H](NC(=O)OC(C)(C)C)c1nnc(S(=O)(=O)Cc2cccc(C)c2)o1 (stereo not given in full)	> 38 µM (inactive)
Cc1ccc(NC(=O)C(CC(C)C)NC(N)=O)cc1 (stereo not given)	> 38 µM (inactive)
Cc1cc(C)c(C(CC(=O)c2cccs2)C(C#N)C#N)c(C)c1 (stereo not given)	38.8 µM
Cc1ccc(-c2csc(NC(=O)CSC3=NCCS3)n2)cc1	19.1 µM
O=C(/C=C/c1ccc(O)cc1)c1ccc(NC2=C(N3CCCCC3)C(=O)c3ccccc3C2=O)cc1	2.06 µM
Cc1[nH][nH]c(=O)c1C(c1ccc(Br)cc1)c1c(C)[nH][nH]c1=O	11.1 µM
Oc1cnn(-c2ccccc2)c1	> 38 µM (inactive)
Clc1ccc(-c2nnc(Sc3nc4ccccc4o3)c3ccccc23)cc1	7.15 µM

SMILES	AC50
Cc1cc(N/N=C/c2ccc(O)c(C)c2O)nc(-c2ccccc2O)n1	> 38 µM (inactive)
CC1=NNC(=O)C1C(c1cccc(O)c1)C(C#N)C#N (stereo not given)	> 38 µM (inactive)
CCCCCc1cc(=O)oc2c(C(CCN3CCCC(C)C3)c3ccc(N(C)C)cc3)c(OC)cc(OC)c12 (stereo not given)	> 38 µM (inactive)
O=C(Nc1cccc(F)c1)N1CCC(c2ccccc2)CC1	> 38 µM (inactive)
O=C(CCl)Oc1ccc2occ(C(=O)c3cccs3)c2c1	> 38 µM (inactive)
CCOC(=O)c1nnn(-c2nonc2-n2cccc2)c1CCl	26.6 µM
Cn1c(=O)c([N+](=O)[O-])c(-n2ccnc2)c2ccccc21	> 38 µM (inactive)
CC(C)[n+]1ccn(C2=C([O-])c3ccccc3C(=O)/C2=N\S(=O)(=O)c2ccccc2)c1	8.08 µM
O=C(CN1C(=O)S/C(=C\C=C\c2ccccc2)C1=O)Nc1ccc(C(=O)O)cc1	29.6 µM
O=C1C=C(N2CCOCC2)c2ccccc2C1=O	4.51 µM
COC(=O)c1ccccc1NC(=S)NC(=O)c1ccc(C)cc1	> 38 µM (inactive)
Cc1c(Cl)cccc1NC(=O)CSCc1cc(=O)[nH][nH]1	33.3 µM
CCc1[nH]nc2c1C(c1cccc(OC(=O)N3CCOCC3)c1)C(C#N)=C(N)O2 (stereo not given)	> 38 µM (inactive)
O=C1NC(c2ccc(-c3ccccc3[N+](=O)[O-])o2)C(C(=O)c2ccc(Cl)cc2)C(O)(C(F)(F)F)N1 (stereo not given)	17 µM
COC(=O)C(O)(c1c(C)[nH]n(-c2ccccc2)c1=O)C(F)(F)F (stereo not given)	5.49 µM
Nc1ccccc1S(=O)(=O)NC1=NCCCCC1	> 38 µM (inactive)
CCCc1[nH]nc2c1C(c1ccc(OC(=O)N3CCOCC3)cc1)C(C#N)=C(N)O2 (stereo not given)	> 38 µM (inactive)
O=C(Nc1ccc(N2CCOCC2)cc1)Nc1ccc2nsnc2c1	> 38 µM (inactive)
Cc1nccn1-c1c([N+](=O)[O-])c(=O)n(C)c2ccccc12	> 38 µM (inactive)
Cc1ccc(C(=O)N/N=C\c2cc(Br)c(Br)o2)cn1	15.7 µM
CSc1nc(-c2ccccc2)nn1C(=O)c1ccc(Cl)cc1	> 38 µM (inactive)
CCc1nnc(NS(=O)(=O)c2ccc(NC(=S)NC(=O)/C=C/c3ccc(C(C)C)cc3)cc2)s1	5.98 µM
CCOc1cc(/C=C2/SC(=S)N(Cc3ccccc3)C2=O)ccc1O	> 38 µM (inactive)
CCOC(=O)CC1=NN(c2ccccc2)C(=O)C1	36 µM
Cc1[nH]n(-c2ccccc2)c(=O)c1C(c1cccc([N+](=O)[O-])c1O)c1c(C)[nH]n(-c2ccccc2)c1=O	1.72 µM
Cc1cc(-c2[nH]nc3c2C(c2cccc(O)c2)C(C#N)=C(N)O3)c(C)s1 (stereo not given)	28.8 µM
N#CC(C#N)C(c1ccsc1)c1c(-c2ccccc2)[nH][nH]c1=O (stereo not given)	37.8 µM

SMILES	AC50
Cc1cc(=O)n(CCCc2ccccc2)[nH]1	36.5 µM
CCOC(=O)c1sc(N(Cc2ccccc2)C(=O)CCl)nc1C	5.79 µM
O=C(N/N=C/c1coc2ccc(Cl)cc2c1=O)c1ccc(O)cc1	> 38 µM (inactive)
CC(=O)c1c(Cl)nc2cccc3c2c1-c1ccccc1C3=O	> 38 µM (inactive)
CCOC(=O)N/N=C\c1ccc(OC(=O)c2ccco2)cc1	> 38 µM (inactive)
CCc1ccc2c(c1)C(NC(C)=O)C(=O)N2CCN1CCOCC1 (stereo not given)	37 µM
CCCCN(C(=O)c1cccc2c(=O)c(C)c(-c3ccccc3)oc12)c1ccccc1	6.5 µM
Cc1nc2c(=O)n(C)c(=O)n(C)c2nc1Cl	> 38 µM (inactive)
CC(=O)Nc1ccc(NC(=O)CSc2ncc(C(=O)Nc3ccccc3)c(=O)n2C)cc1	1.04 µM
CC(=O)NC1C(=O)N(CCN2CCOCC2)c2ccc(C)cc21 (stereo not given)	21.6 µM
C=CS(=O)c1sc(Cl)c(N2CCOCC2)c1[N+](=O)[O-] (stereo not given)	> 38 µM (inactive)
O=S(=O)(c1ccc(Cl)cc1)c1snnc1-c1ccccc1	> 38 µM (inactive)
O=C1Cc2ccccc2C(=O)N1Cc1ccccc1	> 38 µM (inactive)
Cc1cccc(N(Cc2cc(=O)[nH]c3ccccc23)C(=O)CCl)c1	6.83 µM
CC(C)=CCC1=C(OCC(=O)O)C(=O)c2ccccc2C1=O	10.3 µM
COc1ccc(-c2c(=O)n(OC)c3ccccc3[n+]2[O-])cc1OC	> 38 µM (inactive)
O=C(CN(c1cccc(Br)c1)S(=O)(=O)c1ccccc1)N/N=C/c1cc([N+](=O)[O-])ccc1O	> 38 µM (inactive)
CCOC(=O)c1ccc(NC2=CC(=O)C(=O)c3ccccc32)cc1	> 38 µM (inactive)
Cc1ccccc1NC(=O)C(=Cc1ccc(C(=O)O)cc1)C(=O)Nc1ccccc1C	> 38 µM (inactive)
O=C1C(Cl)=C(Nc2ccc3cn[nH]c3c2)C(=O)c2ccccc21	3.75 µM
O=S(=O)(c1ccccc1)c1ncc(C(F)(F)F)cc1Cl	> 38 µM (inactive)
FC(F)(F)c1ccc(C2[C@H]3CN(Cc4cccnc4)[C@H](c4ccccc4)C34CC2(c2cccnc2)C4)cc1 (stereo not given in full)	5.51 µM
Cc1ccccc1CS(=O)(=O)c1snnc1C	> 38 µM (inactive)
CCN(C(=O)CSc1ncccc1C(=O)Oc1cccc([N+](=O)[O-])c1)c1cccc(C)c1	> 38 µM (inactive)
